Results as given in ChEMBL document CHEMBL3880402, “Inhibitors of E1 activating enzymes” (2006).

These molecules were tested against T1, NEDD8-activating enzyme E1 catalytic subunit (Homo sapiens, UniProt Q8TBC4) (assay: Inhibition of recombinant human untagged NAEalpha/N-terminal His-tagged NAEbeta expressed in Bac-to-Bac expression system using FLAG-tagged NEDD8 as substrate after 90 mins in presence of GST-tagged Ubc12 by HTRF assay).
T1 sequence (Q8TBC4 whole entry): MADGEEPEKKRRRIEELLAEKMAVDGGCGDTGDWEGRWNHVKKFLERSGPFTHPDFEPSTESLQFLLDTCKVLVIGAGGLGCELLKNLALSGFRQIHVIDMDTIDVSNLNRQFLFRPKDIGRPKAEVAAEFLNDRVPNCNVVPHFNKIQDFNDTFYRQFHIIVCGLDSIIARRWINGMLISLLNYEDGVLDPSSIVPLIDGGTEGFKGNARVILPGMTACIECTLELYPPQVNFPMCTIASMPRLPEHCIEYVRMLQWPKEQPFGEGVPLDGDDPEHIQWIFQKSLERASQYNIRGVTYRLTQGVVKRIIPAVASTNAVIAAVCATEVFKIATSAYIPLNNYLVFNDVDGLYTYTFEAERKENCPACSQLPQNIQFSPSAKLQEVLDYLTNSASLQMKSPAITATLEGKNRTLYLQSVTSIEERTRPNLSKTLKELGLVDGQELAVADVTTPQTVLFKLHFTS

SMILES | IC50
NS(=O)(=O)OC[C@H]1O[C@@H](n2cnc3c(C#Cc4ccccc4Cl)ncnc32)[C@H](O)[C@@H]1O | 100 to 1000 nM
NS(=O)(=O)OC[C@H]1O[C@@H](n2cnc3c(C#Cc4cc(F)cc(F)c4)ncnc32)[C@H](O)[C@@H]1O | 100 to 1000 nM
COc1ccc(C#Cc2ncnc3c2ncn3[C@@H]2O[C@H](COS(N)(=O)=O)[C@@H](O)[C@H]2O)cc1 | 100 to 1000 nM
COCCNc1ncnc2c1ncn2[C@@H]1O[C@H](COS(N)(=O)=O)[C@@H](O)[C@H]1O | 100 to 1000 nM
NS(=O)(=O)OC[C@H]1O[C@@H](n2cnc3c(NCCN4CCCC4)ncnc32)[C@H](O)[C@@H]1O | 100 to 1000 nM
NS(=O)(=O)OC[C@H]1O[C@@H](n2cnc3c(NCc4ccc(Cl)cc4)ncnc32)[C@H](O)[C@@H]1O | 100 to 1000 nM
NS(=O)(=O)OC[C@H]1O[C@@H](n2cnc3c(N[C@H]4CCc5ccccc54)nncc32)[C@H](O)[C@@H]1O | 100 to 1000 nM
Nc1nc(N[C@H]2CCc3ccccc32)c2ncn([C@@H]3O[C@H](COS(N)(=O)=O)[C@@H](O)[C@H]3O)c2n1 | 100 to 1000 nM
NS(=O)(=O)OC[C@H]1O[C@@H](n2cnc3c(NC(=O)c4ccc(Br)cc4)ncnc32)[C@H](O)[C@@H]1O | 100 to 1000 nM
NS(=O)(=O)OC[C@H]1O[C@@H](n2cnc3c(C#Cc4ccccc4Br)ncnc32)[C@H](O)[C@@H]1O | 100 to 1000 nM
NS(=O)(=O)OC[C@H]1O[C@@H](n2cnc3c(NCc4cccs4)ncnc32)[C@H](O)[C@@H]1O | 100 to 1000 nM
NS(=O)(=O)OC[C@H]1O[C@@H](n2cnc3c(N[C@H]4CCc5ccccc54)ncnc32)[C@@H](F)[C@@H]1O | 100 to 1000 nM
COc1ccccc1CNc1ncnc2c1ncn2[C@@H]1O[C@H](COS(N)(=O)=O)[C@@H](O)[C@H]1O | 100 to 1000 nM
Cc1ncnc2c1ncn2[C@@H]1O[C@H](COS(N)(=O)=O)[C@@H](O)[C@H]1O | 100 to 1000 nM
NS(=O)(=O)OC[C@H]1C[C@@H](n2cnc3c(CCc4ccccc4)ncnc32)[C@H](O)[C@@H]1O | 100 to 1000 nM
C[C@@]1(O)[C@H](O)[C@@H](COS(N)(=O)=O)O[C@H]1n1cnc2c(N[C@H]3CCc4ccccc43)ncnc21 | 100 to 1000 nM
NS(=O)(=O)OC[C@H]1O[C@@H](n2cnc3c(C#Cc4ccccc4C(F)(F)F)ncnc32)[C@H](O)[C@@H]1O | 100 to 1000 nM

SMILES | IC50
NS(=O)(=O)CC[C@H]1O[C@@H](n2cnc3c(N[C@@H]4c5ccccc5C[C@@H]4O)ncnc32)[C@H](O)[C@@H]1O | 100 to 1000 nM
COc1cccc(CNc2ncnc3c2ncn3[C@@H]2O[C@H](CNS(N)(=O)=O)[C@@H](O)[C@H]2O)c1 | 100 to 1000 nM
NS(=O)(=O)OC[C@H]1O[C@@H](n2cnc3c(NC(=O)c4ccccc4)ncnc32)[C@H](O)[C@@H]1O | 100 to 1000 nM
CCCc1ncnc2c1ncn2[C@@H]1C[C@H](COS(N)(=O)=O)[C@@H](O)[C@H]1O | 100 to 1000 nM
NS(=O)(=O)OC[C@H]1C[C@@H](n2cnc3c(N[C@H]4CCc5ccccc54)ncnc32)[C@H](O)[C@@H]1O | 100 to 1000 nM
NS(=O)(=O)OC[C@H]1O[C@@H](n2cnc3c(C4CC4)ncnc32)[C@H](O)[C@@H]1O | 100 to 1000 nM
NS(=O)(=O)OC[C@H]1O[C@@H](n2cnc3c(C#Cc4ccc(F)cc4)ncnc32)[C@H](O)[C@@H]1O | 100 to 1000 nM
NS(=O)(=O)OC[C@H]1C[C@@H](n2cnc3c(C#Cc4ccccc4)ncnc32)C[C@@H]1O | 100 to 1000 nM
NS(=O)(=O)NC[C@H]1O[C@@H](n2cnc3c(NC[C@H](O)c4cccc(O)c4)ncnc32)[C@H](O)[C@@H]1O | 100 to 1000 nM
CO[C@@H]1[C@H](O)[C@@H](COS(N)(=O)=O)O[C@H]1n1cnc2c(N[C@H]3CCc4ccccc43)ncnc21 | 100 to 1000 nM
NS(=O)(=O)OC[C@H]1O[C@@H](n2cnc3c(-c4ccco4)ncnc32)[C@H](O)[C@@H]1O | 100 to 1000 nM
NS(=O)(=O)NC[C@H]1O[C@@H](n2cnc3c(N[C@@H]4CCc5ccccc54)ncnc32)[C@H](O)[C@@H]1O | 100 to 1000 nM
NS(=O)(=O)OC[C@H]1O[C@@H](n2ccc3cncnc32)C[C@@H]1O | 100 to 1000 nM
NS(=O)(=O)OC[C@H]1O[C@@H](n2cnc3c(CNC(=O)c4cccnc4)ncnc32)[C@H](O)[C@@H]1O | 100 to 1000 nM
NS(=O)(=O)NC[C@H]1O[C@@H](n2cnc3c(NCc4ccccc4)ncnc32)[C@H](O)[C@@H]1O | 100 to 1000 nM
NS(=O)(=O)OC[C@H]1O[C@@H](n2cnc3c(NCc4cccc5ccccc45)ncnc32)[C@H](O)[C@@H]1O | 100 to 1000 nM
CC1(C)CC(Nc2ncnc3c2ncn3[C@@H]2O[C@H](CCS(N)(=O)=O)[C@@H](O)[C@H]2O)c2ccccc21 (stereo partly specified) | 100 to 1000 nM

Results, then the molecule that gave them:

IC50 | SMILES
100 to 1000 nM | NS(=O)(=O)OC[C@H]1O[C@@H](n2cnc3c(NC(=O)c4ccc(Cl)cc4)ncnc32)[C@H](O)[C@@H]1O
100 to 1000 nM | NS(=O)(=O)OC[C@H]1O[C@@H](n2ccc3c(N[C@H]4CCc5ccccc54)ncnc32)C[C@@H]1O
100 to 1000 nM | NS(=O)(=O)OC[C@H]1O[C@@H](n2cnc3c(CNC(=O)c4cc(F)cc(F)c4)ncnc32)[C@H](O)[C@@H]1O
100 to 1000 nM | NS(=O)(=O)OC[C@H]1O[C@@H](n2cnc3c(N[C@H]4CCc5ccccc54)nc(Cl)nc32)[C@H](O)[C@@H]1O
100 to 1000 nM | NS(=O)(=O)OC[C@H]1O[C@@H](n2cnc3c(CCc4ccccc4)ncnc32)[C@H](O)[C@@H]1O
100 to 1000 nM | COc1cccc(CNc2ncnc3c2ncn3[C@@H]2O[C@H](COS(N)(=O)=O)[C@@H](O)[C@H]2O)c1
100 to 1000 nM | NS(=O)(=O)NC[C@H]1O[C@@H](n2cnc3c(NCc4ccc5c(c4)OCO5)ncnc32)[C@H](O)[C@@H]1O
100 to 1000 nM | NS(=O)(=O)OC[C@H]1O[C@@H](n2cnc3c(CCc4ccccc4)ncnc32)[C@@H](F)[C@@H]1O (relative stereo)
100 to 1000 nM | NS(=O)(=O)OC[C@H]1O[C@@H](n2cnc3c(C#Cc4cccc(Br)c4)ncnc32)[C@H](O)[C@@H]1O
100 to 1000 nM | NS(=O)(=O)OC[C@H]1O[C@@H](n2cnc3c(C#Cc4ccccc4)ncnc32)C[C@@H]1O
100 to 1000 nM | NS(=O)(=O)OC[C@H]1O[C@@H](n2cnc3c(N[C@H]4CCc5ccccc54)ncnc32)[C@@H](O)[C@@H]1O
100 to 1000 nM | NS(=O)(=O)OC[C@H]1O[C@@H](n2cnc3c(NCCN4CCOCC4)ncnc32)[C@H](O)[C@@H]1O
100 to 1000 nM | NS(=O)(=O)OC[C@H]1O[C@@H](n2cnc3c(/C=C/c4ccccc4)ncnc32)[C@H](O)[C@@H]1O
100 to 1000 nM | CO[C@H]1[C@H](O)[C@@H](COS(N)(=O)=O)O[C@H]1n1cnc2c(N[C@H]3CCc4ccccc43)ncnc21
100 to 1000 nM | COc1ccccc1C(=O)NCc1ncnc2c1ncn2[C@@H]1O[C@H](COS(N)(=O)=O)[C@@H](O)[C@H]1O
100 to 1000 nM | NS(=O)(=O)OC[C@H]1O[C@@H](n2cnc3c(C#Cc4cccc(F)c4)ncnc32)[C@H](O)[C@@H]1O
100 to 1000 nM | NS(=O)(=O)OC[C@H]1O[C@@H](n2cnc3c(C#CC4CC4)ncnc32)[C@H](O)[C@@H]1O
100 to 1000 nM | NS(=O)(=O)OC[C@H]1O[C@@H](n2cnc3c(NCCN4CCN(Cc5ccccc5)CC4)ncnc32)[C@H](O)[C@@H]1O
100 to 1000 nM | NS(=O)(=O)NC[C@H]1O[C@@H](n2cnc3c(C#Cc4ccccc4)ncnc32)[C@H](O)[C@@H]1O

IC50 | SMILES
100 to 1000 nM | NS(=O)(=O)NC[C@H]1C[C@@H](n2cnc3c(N[C@H]4CCc5ccccc54)ncnc32)[C@H](O)[C@@H]1O
100 to 1000 nM | NS(=O)(=O)NC[C@H]1O[C@@H](n2cnc3c(NCC(c4ccccc4)c4ccccc4)ncnc32)[C@H](O)[C@@H]1O
100 to 1000 nM | NS(=O)(=O)OC[C@H]1O[C@@H](n2cnc3c(-c4ccccc4)ncnc32)[C@H](O)[C@@H]1O
100 to 1000 nM | NS(=O)(=O)OC[C@H]1O[C@@H](n2cnc3c(C#Cc4cccc(C(F)(F)F)c4)ncnc32)[C@H](O)[C@@H]1O
100 to 1000 nM | NS(=O)(=O)OC[C@H]1O[C@@H](n2cnc3c(CN4Cc5ccccc5C4)ncnc32)[C@H](O)[C@@H]1O
100 to 1000 nM | COc1ccccc1C(=O)Nc1ncnc2c1ncn2[C@@H]1O[C@H](COS(N)(=O)=O)[C@@H](O)[C@H]1O
100 to 1000 nM | NS(=O)(=O)OC[C@H]1O[C@@H](n2cnc3c(N[C@H](CO)c4ccccc4)ncnc32)[C@H](O)[C@@H]1O
100 to 1000 nM | NS(=O)(=O)OC[C@H]1O[C@@H](n2cnc3c(N[C@@H](CO)c4ccccc4)ncnc32)[C@H](O)[C@@H]1O
100 to 1000 nM | NS(=O)(=O)OC[C@H]1O[C@@H](n2cnc3c(-c4cccc(-n5cccn5)c4)ncnc32)[C@H](O)[C@@H]1O
100 to 1000 nM | NS(=O)(=O)OC[C@H]1O[C@@H](n2cnc3c(NCc4ccc(OC(F)(F)F)cc4)ncnc32)[C@H](O)[C@@H]1O
100 to 1000 nM | NS(=O)(=O)OC[C@H]1O[C@@H](n2cnc3c(NC(=O)Nc4ccccc4)ncnc32)[C@H](O)[C@@H]1O
100 to 1000 nM | NS(=O)(=O)CC[C@H]1O[C@@H](n2cnc3c(NCc4ccc(Cl)cc4)ncnc32)[C@H](O)[C@@H]1O
100 to 1000 nM | NS(=O)(=O)OC[C@H]1O[C@@H](n2cnc3c(C#Cc4ccc(Br)cc4)ncnc32)[C@H](O)[C@@H]1O
100 to 1000 nM | NS(=O)(=O)OC[C@H]1O[C@@H](n2cnc3c(NCC4CCCCC4)ncnc32)[C@H](O)[C@@H]1O
≤ 1000 nM | CC(C)Cc1ncnc2c1ncn2[C@@H]1C[C@H](COS(N)(=O)=O)[C@@H](O)[C@H]1O
≤ 1000 nM | NS(=O)(=O)NC[C@H]1O[C@@H](n2cnc3c(NCCOc4ccccc4)ncnc32)[C@H](O)[C@@H]1O
≤ 1000 nM | COc1ncnc2c1ccn2[C@H]1C[C@H](O)[C@@H](COS(N)(=O)=O)O1
≤ 1000 nM | NS(=O)(=O)OC[C@H]1O[C@@H](n2cnc3c(Cc4ccc(F)cc4)ncnc32)[C@H](O)[C@@H]1O
